Test results reported in patent US6274715A, “Tricyclic erythromycin derivatives” (priority 1997, dated 2001).
In brackets after ≈: the same amount, converted by molar mass.

Tests used:
Type in all cases: cell-based
[1] = system: PSEUDOMONAS AERUGINOSA DPHD-5263; experiment: In vitro antibacterial activity, MIC, BHI agar dilution; conditions: P. aeruginosa DPHD-5263, unit assumed
[2] = system: STREPTOCOCCUS PYOGENES PIU 2548; experiment: as above; conditions: S. pyogenes PIU 2548, unit assumed
[3] = system: STAPHYLOCOCCUS AUREUS A-5278; experiment: as above; conditions: S. aureus A-5278, unit assumed
[4] = system: PSEUDOMONAS AERUGINOSA K799/WT; experiment: as above; conditions: P. aeruginosa K799/WT, unit assumed
[5] = system: CANDIDA ALBICANS CCH 442; experiment: as above; conditions: C. albicans CCH 442, unit assumed
[6] = system: PSEUDOMONAS CEPACIA 296I; experiment: as above; conditions: P. cepacia 296I, unit assumed
[7] = system: PSEUDOMONAS AERUGINOSA DPHD-2862; experiment: as above; conditions: P. aeruginosa DPHD-2862, unit assumed
[8] = system: STAPHYLOCOCCUS AUREUS CMX 642A; experiment: as above; conditions: S. aureus CMX 642A, unit assumed
[9] = system: M[…] ATCC 4698; experiment: as above; conditions: M. luteus ATCC 4698, unit assumed
In short: (§1)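 BHI agar dilution, 12 plates; inoculum 1:100 (1:10 slow-growing strains), Steers replicator; 35-37° C, 20-24 h. MIC = lowest conc. with no growth/slight haze/sparse colonies vs growth control, visual read. Erythromycin A reference plate.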

[10] = system: STR[…] 508; experiment: as above; conditions: S. agalactiae CMX 508, unit assumed
In short: as §1

[11] = system: M[…] ATCC 9341; experiment: as above; conditions: M. luteus ATCC 9341, unit assumed
In short: as §1

[12] = system: EN[…] ATCC 8043; experiment: as above; conditions: E. faecium ATCC 8043, unit assumed
In short: as §1

[13] = system: STAPHYLOCOCCUS AUREUS 1775; experiment: as above; conditions: S. aureus 1775, unit assumed
[14] = system: STREPTOCOCCUS BOVIS A-5169; experiment: as above; conditions: S. bovis A-5169, unit assumed
[15] = system: STREPTOCOCCUS PYOGENES EES61; experiment: as above; conditions: S. pyogenes EES61, unit assumed
[16] = system: ESCHERICHIA COLI KNK 437; conditions: E. coli KNK 437; BHI agar; unit assumed
[17] = system: ENTEROBACTER AEROGENES ATCC 13048; experiment: In vitro antibacterial activity, MIC, BHI agar dilution; conditions: E. aerogenes ATCC 13048, unit assumed
[18] = system: PROVIDENCIA STUARTII CMX 640; conditions: P. stuartii CMX 640; BHI agar; unit assumed
[19] = system: PSEUDOMONAS AERUGINOSA BMH10; experiment: In vitro antibacterial activity, MIC, BHI agar dilution; conditions: P. aeruginosa BMH10, unit assumed
[20] = system: STAPHYLOCOCCUS EPIDERMIDIS 3519; conditions: S. epidermidis 3519; BHI agar; unit assumed
[21] = system: STREPTOCOCCUS PYOGENES 930; experiment: In vitro antibacterial activity, MIC, BHI agar dilution; conditions: S. pyogenes 930, unit assumed
[22] = system: STAPHYLOCOCCUS AUREUS NCTC10649M; experiment: as above; conditions: S. aureus NCTC10649M, unit assumed
[23] = system: ESCHERICHIA COLI DC-2; experiment: as above; conditions: E. coli DC-2, unit assumed
[24] = system: STAPHYLOCOCCUS AUREUS ATCC 6538P; experiment: as above; conditions: S. aureus ATCC 6538P, 35-37° C., 20 to 24 hours, unit assumed
[25] = system: ESCHERICHIA COLI H560; experiment: as above; conditions: E. coli H560, unit assumed
[26] = system: ESCHERICHIA COLI JUHL; conditions: E. coli JUHL; BHI agar; unit assumed
[27] = system: ESCHERICHIA COLI SS; experiment: In vitro antibacterial activity, MIC, BHI agar dilution; conditions: E. coli SS, unit assumed
[28] = system: PSEUDOMONAS AERUGINOSA K799/61; experiment: as above; conditions: P. aeruginosa K799/61, unit assumed
[29] = system: KLEBSIELLA PNEUMONIAE ATCC 8045; experiment: as above; conditions: K. pneumoniae ATCC 8045, unit assumed
[30] = system: STAPHYLOCOCCUS AUREUS CMX 553; experiment: as above; conditions: S. aureus CMX 553, unit assumed
[31] = system: STAPHYLOCOCCUS AUREUS A5177; experiment: as above; conditions: S. aureus A5177, unit assumed
[32] = system: PSEUDOMONAS AERUGINOSA 5007; experiment: as above; conditions: P. aeruginosa 5007, unit assumed
[33] = system: MYCOBACTERIUM SMEGMATIS ATCC 114; experiment: as above; conditions: M. smegmatis ATCC 114, unit assumed

SMILES | MIC [1] [µg/mL] | MIC [2] [µg/mL] | MIC [3] [µg/mL] | MIC [4] [µg/mL] | MIC [5] [µg/mL] | MIC [6] [µg/mL] | MIC [7] [µg/mL] | MIC [8] [µg/mL] | MIC [9] [µg/mL] | MIC [10] [µg/mL] | MIC [11] [µg/mL] | MIC [12] [µg/mL] | MIC [13] [µg/mL] | MIC [14] [µg/mL] | MIC [15] [µg/mL] | MIC [16] [µg/mL] | MIC [17] [µg/mL] | MIC [18] [µg/mL] | MIC [19] [µg/mL] | MIC [20] [µg/mL] | other results
CC[C@H]1OC(=O)[C@H](C)C(=O)[C@H](C)[C@@H](O[C@@H]2O[C@H](C)C[C@H](N(C)C)[C@H]2O)[C@](C)(OC)C[C@@H](C)C2=NCC(CN(C)Cc3ccccc3)N3C(=O)O[C@@]1(C)[C@H]3[C@H]2C (stereo partly drawn) [Example 132] | > 100 | 0.78 (≈ 1.01 µM) | 100 (≈ 130 µM) | 100 (≈ 130 µM) | > 100 | > 100 | > 100 | 0.39 (≈ 0.506 µM) | 0.2 (≈ 0.259 µM) | 0.02 (≈ 0.0259 µM) | 0.05 (≈ 0.0649 µM) | 0.1 (≈ 0.13 µM) | 100 (≈ 130 µM) | 0.01 (≈ 0.013 µM) | 0.02 (≈ 0.0259 µM) | > 100 | > 100 | > 100 | > 100 | 0.39 (≈ 0.506 µM) | MIC [21]: 50 µg/mL (≈ 64.9 µM); MIC [22]: 0.39 µg/mL (≈ 0.506 µM); MIC [23]: 100 µg/mL (≈ 130 µM); MIC [24]: 0.39 µg/mL (≈ 0.506 µM); MIC [25]: 50 µg/mL (≈ 64.9 µM); MIC [26]: 100 µg/mL (≈ 130 µM); MIC [27]: 0.78 µg/mL (≈ 1.01 µM); MIC [28]: 1.56 µg/mL (≈ 2.02 µM); MIC [29]: > 100 µg/mL; MIC [30]: 0.39 µg/mL (≈ 0.506 µM); MIC [31]: 0.39 µg/mL (≈ 0.506 µM); MIC [32]: > 100 µg/mL; MIC [33]: 0.78 µg/mL (≈ 1.01 µM)
CCC1OC(=O)C(C)C(=O)C(C)C(OC2OC(C)CC(N(C)C)C2O)C(C)(OC)CC(C)C2=NCC(C)(CN(C)Cc3ccccc3)N3C(=O)OC1(C)C3C2C (stereo not drawn) [Example 134] | > 100 | 0.78 (≈ 0.994 µM) | > 100 | > 100 | > 100 | > 100 | > 100 | 0.78 (≈ 0.994 µM) | 0.78 (≈ 0.994 µM) | 0.02 (≈ 0.0255 µM) | 0.05 (≈ 0.0637 µM) | 0.1 (≈ 0.127 µM) | > 100 | 0.01 (≈ 0.0127 µM) | 0.02 (≈ 0.0255 µM) | > 100 | > 100 | > 100 | > 100 | 0.78 (≈ 0.994 µM) | MIC [21]: > 100 µg/mL; MIC [22]: 0.78 µg/mL (≈ 0.994 µM); MIC [23]: 100 µg/mL (≈ 127 µM); MIC [24]: 0.78 µg/mL (≈ 0.994 µM); MIC [25]: 50 µg/mL (≈ 63.7 µM); MIC [26]: 100 µg/mL (≈ 127 µM); MIC [27]: 1.56 µg/mL (≈ 1.99 µM); MIC [28]: 1.56 µg/mL (≈ 1.99 µM); MIC [29]: > 100 µg/mL; MIC [30]: 0.78 µg/mL (≈ 0.994 µM); MIC [31]: 0.78 µg/mL (≈ 0.994 µM); MIC [32]: > 100 µg/mL; MIC [33]: 0.78 µg/mL (≈ 0.994 µM)
CC[C@H]1OC(=O)[C@H](C)C(=O)[C@H](C)[C@@H](O[C@@H]2O[C@H](C)C[C@H](N(C)C)[C@H]2O)[C@](C)(OC)C[C@@H](C)C2=NC[C@H](COC(=O)c3ccncc3)N3C(=O)O[C@@]1(C)[C@H]3[C@H]2C [Example 138] | > 100 | 1.56 (≈ 2.02 µM) | > 100 | > 100 | > 100 | 100 (≈ 129 µM) | > 100 | 0.39 (≈ 0.505 µM) | 0.39 (≈ 0.505 µM) | 0.1 (≈ 0.129 µM) | 0.02 (≈ 0.0259 µM) | 0.1 (≈ 0.129 µM) | > 100 | 0.01 (≈ 0.0129 µM) | 0.02 (≈ 0.0259 µM) | 50 (≈ 64.7 µM) | > 100 | > 100 | > 100 | 0.39 (≈ 0.505 µM) | MIC [21]: > 100 µg/mL; MIC [22]: 0.39 µg/mL (≈ 0.505 µM); MIC [23]: 50 µg/mL (≈ 64.7 µM); MIC [24]: 0.39 µg/mL (≈ 0.505 µM); MIC [25]: 50 µg/mL (≈ 64.7 µM); MIC [26]: 50 µg/mL (≈ 64.7 µM); MIC [27]: 0.78 µg/mL (≈ 1.01 µM); MIC [28]: 0.78 µg/mL (≈ 1.01 µM); MIC [29]: > 100 µg/mL; MIC [30]: 0.39 µg/mL (≈ 0.505 µM); MIC [31]: 0.39 µg/mL (≈ 0.505 µM); MIC [32]: > 100 µg/mL; MIC [33]: 3.1 µg/mL (≈ 4.01 µM)
CC[C@H]1OC(=O)[C@H](C)C(=O)[C@H](C)[C@@H](O[C@@H]2O[C@H](C)C[C@H](N(C)C)[C@H]2O)[C@](C)(OC)C[C@@H](C)C2=NCC(COC(=O)c3ccc([N+](=O)[O-])cc3)N3C(=O)O[C@@]1(C)[C@H]3[C@H]2C (stereo partly drawn) [Example 140] | > 100 | 0.2 (≈ 0.245 µM) | > 100 | > 100 | > 100 | 25 (≈ 30.6 µM) | > 100 | 0.1 (≈ 0.122 µM) | 0.1 (≈ 0.122 µM) | 0.02 (≈ 0.0245 µM) | 0.01 (≈ 0.0122 µM) | 0.05 (≈ 0.0612 µM) | > 100 | ≤ 0.005 | ≤ 0.005 | 50 (≈ 61.2 µM) | > 100 | > 100 | > 100 | 0.1 (≈ 0.122 µM) | MIC [21]: 50 µg/mL (≈ 61.2 µM); MIC [22]: 0.1 µg/mL (≈ 0.122 µM); MIC [23]: 50 µg/mL (≈ 61.2 µM); MIC [24]: 0.1 µg/mL (≈ 0.122 µM); MIC [25]: 25 µg/mL (≈ 30.6 µM); MIC [26]: 50 µg/mL (≈ 61.2 µM); MIC [27]: 0.78 µg/mL (≈ 0.955 µM); MIC [28]: 0.39 µg/mL (≈ 0.477 µM); MIC [29]: > 100 µg/mL; MIC [30]: 0.1 µg/mL (≈ 0.122 µM); MIC [31]: 0.1 µg/mL (≈ 0.122 µM); MIC [32]: > 100 µg/mL; MIC [33]: 0.39 µg/mL (≈ 0.477 µM)
